Several values for one entry are separate records, joined by “and”; a condition that tells them apart may be missing. Identical values can stand only once. Like-named read-outs stand apart in the source and are kept apart here. Peptide text beside a SMILES is read from it. * marks the point of attachment. Cbz = O=C(OCc1ccccc1)*
Legend:
[1] = biological target: T1, FcγRIIa (Homo sapiens, UniProt P12318); experiment: FACS assay of activation of human platelets by heat aggregated IgG (HAGG), P-Selectin expression; assay type: cell-based; conditions: for inhibition at 500 µg/mL / % Inhibition of platelet Activation: primary screen, single concentration of inhibitor 500 μg/ml, HAGG 40 μg/ml, several values = repeat determinations; for inhibition at 500 µg/mL: read-out: % Inhibition of platelet Activation
T1 construct: endogenous in cells; host or cells: washed human platelets
T1 sequence (P12318 34-317): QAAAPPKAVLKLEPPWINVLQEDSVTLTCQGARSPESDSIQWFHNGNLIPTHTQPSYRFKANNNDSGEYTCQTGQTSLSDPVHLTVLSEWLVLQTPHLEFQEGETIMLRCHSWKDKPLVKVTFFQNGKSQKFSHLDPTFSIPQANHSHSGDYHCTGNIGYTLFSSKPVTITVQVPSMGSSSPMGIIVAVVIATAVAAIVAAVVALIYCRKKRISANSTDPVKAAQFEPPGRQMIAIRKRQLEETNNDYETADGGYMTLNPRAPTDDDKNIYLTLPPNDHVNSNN
Method: The compounds of Table 1 were screened in a FcγRIIa dependent platelet activation assay and/or aggregation assay where platelets are activated using heat aggregated human immunoglobulin G as an immune complex. Compounds inhibiting this process were then tested for specificity. Note that the platelets were used as the target as the only Fc receptor expressed on these cells is FcγRIIa. In addition, they are very difficult to inhibit and therefore this assists in identifying compounds with reasonable potency.
The compounds of the present invention were initially screened in a rapid FACS screening assay, measuring activation of human platelets by heat aggregated IgG. […] In addition, platelets are very sensitive to a range of stimuli and activate rapidly. Activation is measured by the appearance of the protein P-Selectin on the platelet membrane after exposure to various stimuli. The stimuli were heat aggregated with IgG and as specificity controls, collagen or thrombin.
Specifically, this assay utilises washed platelets and heat aggregated IgG (HAGG) as an immune complex (agonist) to activate and crosslink FcγRIIa. Because this is a primary screen a single concentration of small molecule inhibitor is added to the platelets (final concentration of 500 μg/ml) and allowed to incubate for 30 minutes. Heat Aggregated IgG (HAGG) (40 μg/ml) is then added to the platelets and allowed to incubate for 30 minutes. Paraformaldehyde is added to the platelets for 30 minutes prior to washing. Anti-P-Selectin (FITC conjugated) and Anti-CD41 (PE conjugated) are added and the platelets are then screened by FACS to detect expression of P-Selectin, a marker of platelet activation and CD41, which is expressed by all viable platelets.
In summary, for each compound tested the activity was measured as a function of inhibition of platelet activation and/or platelet aggregation as detailed above. Specificity is defined as specific inhibition of immune complex induced platelet activation but with no effect on arachidonic acid induced activation (and where tested no effect on thrombin, collagen or ADP induced activation).
The compounds were titrated and evaluated for capacity to prevent aggregated IgG induction of p-selectin expression as a measure of activation.

[2] = biological target: HSA-FcγRIIa (Homo sapiens, UniProt P02768+P12318); experiment: ELISA Inhibition Assay: inhibition of human IgG complex binding to plate-bound HSA-FcγRIIa; conditions: HSA-FcγRIIa 5 μg/ml on plate, human IgG complex 0.2 μg/ml
Sequence of HSA-FcγRIIa (P02768+P12318 fused): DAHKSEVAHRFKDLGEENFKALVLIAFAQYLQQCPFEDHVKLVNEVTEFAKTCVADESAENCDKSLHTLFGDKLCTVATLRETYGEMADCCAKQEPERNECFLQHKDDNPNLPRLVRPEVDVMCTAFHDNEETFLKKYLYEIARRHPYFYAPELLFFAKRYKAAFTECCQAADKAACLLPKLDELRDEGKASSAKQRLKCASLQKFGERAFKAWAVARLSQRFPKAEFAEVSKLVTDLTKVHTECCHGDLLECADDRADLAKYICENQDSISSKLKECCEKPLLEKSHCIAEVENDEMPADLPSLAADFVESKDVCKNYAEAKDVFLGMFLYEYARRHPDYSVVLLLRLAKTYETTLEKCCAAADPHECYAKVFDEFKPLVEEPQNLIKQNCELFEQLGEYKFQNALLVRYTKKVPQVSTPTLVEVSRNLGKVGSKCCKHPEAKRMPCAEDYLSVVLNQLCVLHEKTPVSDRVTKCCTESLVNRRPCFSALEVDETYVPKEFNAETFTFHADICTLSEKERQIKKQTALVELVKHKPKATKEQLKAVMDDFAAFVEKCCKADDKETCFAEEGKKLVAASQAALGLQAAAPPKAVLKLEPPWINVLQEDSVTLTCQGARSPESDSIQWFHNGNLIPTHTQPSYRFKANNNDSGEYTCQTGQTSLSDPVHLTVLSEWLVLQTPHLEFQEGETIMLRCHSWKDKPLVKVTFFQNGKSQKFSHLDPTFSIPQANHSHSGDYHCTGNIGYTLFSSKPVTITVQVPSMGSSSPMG
Method: The compounds may also be screened using an ELISA inhibition assay to detect the blockade of IgG interaction with FcγRIIa.
Compounds were also screened using an ELISA Inhibition Assay. Human Serum Albumin genetically fused to FcγRIIa (HSA-FcγRIIa) was bound to an ELISA plate at a concentration of 5 μg/ml. The small molecule inhibitors were titrated from a starting concentration of 5 mg/ml and allowed to incubate in the presence of the receptor. A human IgG complex (0.2 μg/ml) is then added to the plate and the extent of inhibition of IgG binding by the small molecule inhibitors was measured using HRP labelled anti-human antibody.

[3] = Solubility remark in the platelet activation screen; assay type: physicochemical; conditions: printed instead of a % inhibition value
[4] = in vitro testing, summary table, read-out: IC50 Platelet Inhibition
[5] = washed human platelets, HAGG as agonist, several values in a cell = repeat determinations, '(ICnn)' after a '<' bound = inhibition level at that concentration, read-out: Concentration at 50% inhibition of platelet activation by HAGG

Compound | IC50 [1, 4] [µM] | IC50 [1, 5] | IC50 [2] [µM] | also measured
O=C(O)/C=C/c1ccc(OCCc2ccccc2)cc1 [Compound 299, 4-Phenethyloxycinnamic acid] | 410 | 410 µM | 7200 | 
Cc1c(C(C)(C)C)cc(/C=C(\C#N)C(=O)O)cc1C(C)(C)C [Compound 350] | 290 | 290 µM | 1300 | 
O=C(O)c1cccc(/C=N/c2cc(C(=O)O)cc(C(=O)O)c2)c1 [Compound 114] |  |  |  | inhibition at 500 µg/mL [1]: 8%
O=C(O)c1cccc(C(=O)CSc2ccccc2C(=O)O)c1 [Compound 412, 2-{[2-(3-carboxyphenyl)-2-oxoethyl]thio}benzoic add] | 60 | 60 µM | 7000 | 
O=C(O)c1ccc(C(=O)CSc2ccccc2C(=O)O)cc1 [Compound 410, 2-{[2-(4-carboxyphenyl)-2-oxoethyl]thio}benzoic acid] | 50 | 50 µM | 6900 | 
COc1cccc2c(OC(C)C)c(C(=O)Nc3nnn[nH]3)sc12 [Compound 090, 3-isopropoxy-7-methoxy-N-(1H-1,2,3,4-tetrazol-5-yl)-1-benzo[b]thiophene-2-carboxamide] |  | 195 µM and 295 µM |  | 
O=C(O)c1cccc(/C=N/c2cccc(C(=O)O)c2)c1 [Compound 076] |  |  |  | inhibition at 500 µg/mL [1]: 13%
O=C(O)c1cccc(/C=N/Nc2cccc(C(=O)O)c2)c1 [Compound 200] |  |  |  | % Inhibition of platelet Activation [1]: 98% and 54% and 95%
O=C(O)c1ccc2c(c1)C(=O)c1cc(C(=O)O)ccc1-2 [Compound 001] | 610 | 600 µM | 12200 | 
O=C(O)c1cccc(C(=O)CSCC(=O)c2cccc(C(=O)O)c2)c1 [Compound 292, 1-(3-Carboxyphenyl)-2-[2-(3-carboxyphenyl)-2-oxoethylsulfanyl]ethanone] | 520 | 520 µM | 5600 | 
O=C(O)CNC(=O)CNC(=O)OCc1ccccc1 [Compound 236] (Cbz-Gly-Gly-OH) |  |  |  | % Inhibition of platelet Activation [1]: 34% and 33% and 65%
C/C(=C1\SC(=S)N(CC(=O)O)C1=O)c1cccc(O)c1 [Compound 374, 5-(-Methyl-3-hydroxybenzylidine)rhodanine-3-acetic acid] | 220 |  | 2000 | 
O=C(O)c1ccc(SCC(=O)c2ccccc2)cc1 [Compound 384, 4-[(2-oxo-2-phenylethyl)thio]benzoic acid] | 170 | 170 µM | 4800 | 
O=C(O)c1sc2ccccc2c1OCc1ccccc1 [Compound 333, 3-Benzyloxy-1-benzo[b]thiophene-2-carboxylic acid] | 520 | 520 µM | 1600 | 
O=C(O)c1c(Cl)c2ccc([N+](=O)[O-])cc2[s+]1[O-] (stereo not drawn) [Compound 044, 3-Chloro-6-nitro-1-benzo[b]thiophene-S-oxo-2-carboxylic acid] |  | 230 µM |  | 
N#Cc1cccc(C(=O)CSc2cccc(C(=O)O)c2)c1 [Compound 216, 3-[2-(3-Cyanophenyl)-2-oxoethylsulfanyl]benzoic acid] | 250 | 240 µM | 3000 | 
COc1ccc2sc(C(=O)O)c(OC3CCCCC3)c2c1 [Compound 276, 3-Cyclohexyloxy-5-methoxy-1-benzo[b]thiophene-2-carboxylic acid] |  | < 165 µM and 170 µM |  | melting point: 176 to 177 °C
O=C(O)c1cccc([S+]([O-])c2cccc(C(=O)O)c2)c1 [Compound 032, 3-[(3-Carboxyphenyl)sulfinyl]benzenecarboxylic acid] |  | 70 µM | 2800 | IC50 Platelet Inhibition ([1]; in vitro testing, summary table): -'ve

Compound | IC50 [1, 4] [µM] | IC50 [1, 5] | IC50 [2] [µM] | also measured
O=C(O)c1sc2cc([N+](=O)[O-])ccc2c1Cl [Compound 026, 3-Chloro-6-nitro-1-benzo[b]thiophene-2-carboxylic acid] | 780 | 100 µM | 17500 | 
O=C(O)CCCCCNC(=O)OCc1ccccc1 [Compound 197] | 1300 |  | 9400 | 
O=C(O)c1cccc(SCC(=O)c2ccccc2)c1 [Compound 294] | 80 | < 190 µM and 135 µM and 155 µM and 80 µM | 6000 | 
N#Cc1cccc(C(=O)CSc2ccccc2C(=O)O)c1 [Compound 411, 2-{[2-(3-cyanophenyl)-2-oxoethyl]thio}benzoic acid] | 180 | 180 µM | 7800 | 
O=C(O)c1cccc(/C=N/Nc2cc(Cl)cc(Cl)c2)c1 [Compound 080] |  |  |  | Solubility (word printed in the % inhibition column) [3]: Insoluble
O=C(O)CCNC(=O)OCc1ccccc1 [Compound 233] |  |  |  | % Inhibition of platelet Activation [1]: 74%
O=C(O)c1cccc(CNc2cccc(C(=O)O)c2)c1 [Compound 100] |  |  |  | inhibition at 500 µg/mL [1]: 7%
N#CCCCSc1cccc(C(=O)O)c1 [Compound 239, 3-(3-Cyanopropylsulfanyl)benzoic acid] | 330 | 330 µM |  | IC50 ELISA [2]: -'ve
C/C(=C(/S)C(=O)NCC(=O)O)c1cccc(O)c1 [Compound 383, [3-(3-Hydroxyphenyl)-2-mercaptobut-2-enoylamino]acetic add] | 280 | 280 µM | 1000 | 
O=C(O)c1ccc(C(=O)/C=C/c2ccccc2)cc1 [Compound 237, 4-[(2E)-3-phenylprop-2-enoyl]benzoic acid] | 40 | 40 µM | 6200 | 
CC(NC(=O)CNC(=O)CNC(=O)OCc1ccccc1)C(=O)O (stereo not drawn) [Compound 235] |  |  |  | % Inhibition of platelet Activation [1]: 30% and 49% and 54%
O=C(O)c1cccc(SCC(=O)c2cccc(C(=O)O)c2)c1 [Compound 217, 3-[2-Oxo-2-(3-carboxyphenyl)ethylsulfanyl]benzoic acid] | 320 | 360 µM and > 630 µM | 6100 | 
O=C(/C=C/c1ccccc1C(=O)O)c1ccc[nH]1 [Compound 238, 2-[3-Oxo-3-(1H-pyrrol-2-yl)propenyl]benzoic acid] | 270 | 270 µM | 17500 | 
N#Cc1cccc(C(=O)CSc2ccc(C(=O)O)cc2)c1 [Compound 385, 4-{[2-(3-cyanophenyl)-2-oxoethyl]thio}benzoic acid] | 360 | 360 µM | 6800 | 
O=C(Nc1cccc(C(=O)O)c1)Nc1cccc(C(=O)O)c1 [Compound 192] |  |  |  | % Inhibition of platelet Activation [1]: 19%; inhibition at 500 µg/mL [1]: 22%
O=C(O)c1ccc(/C=N/c2cccc(C(=O)O)c2)cc1 [Compound 081] |  |  |  | inhibition at 500 µg/mL [1]: 83%
COc1ccc2sc(C(=O)Nc3nnn[nH]3)c(OC(C)C)c2c1[N+](=O)[O-] [Compound 092, 3-isopropoxy-4-nitro-5-methoxy-N-(1H-1,2,3,4-tetrazol-5-yl)-1-benzo[b]thiophene-2-carboxamide] |  | 435 µM |  | melting point: 236 to 238 °C

— US7332631B2, “Fc receptor modulating compounds and compositions” (Trillium Therapeutics Inc., priority 2002, dated 2008)
